Assay results taken from patent US4753928A, “Process for obtaining sexual products from mammals suitable for natural or artificial fertilization” (INNOFINANCE Altalanos Innovacios Pengintezet, priority 1985, dated 1988).
Where a SMILES comes first, the peptide text is derived from it. [ ]: non-standard residue; d: D form. pGlu = O=C1CC[C@@H](C(=O)O)N1

Legend:
infant domestic rabbits = assay: Inducing super-ovulation in infant domestic rabbits; format: in vivo, rabbit; settings: 5 μg twice daily 3 days i.p., 50 μg on 4th day, after 26 hours; 42-day old rabbits
Procedure: 20 42-day old rabbit whelps of the white pearl variety reared under large scale farming conditions were administered twice daily for three days 5 μg of D-Phe^6, Gln^8 -GnRH analogue intraperitoneally. Then the animals were divided into two groups and the one half of them was treated with 50 μg of active ingredient on the 4th day while the other half was killed with vapour of ether before treatment began. Developed follicles of this group were counted and used as control in determining the effect of the 50 μg dose. From the group kept alive, two animals were selected and through laparoscope probing their ovulation process was monitored for 10 hours while the animals were kept under narcosis (abdominal cavity was mirrored).

infant female pigs = assay: Inducing super-ovulation in infant pigs; format: in vivo; settings: 10 μg twice daily 6 days i.m., 100 μg on 7th day, after 41 hours; 100-day old pigs
Procedure: 20 100-day old infant female pigs were treated for 6 days, twice daily, with 10 μg doses each consisting of D-Phe^6 -Gln^8 -GnRH analogue administered intramuscularly. In the test half side of the ovaries in the control animals was removed and, by using the test method detailed in Example 3, the number of the Graf-follicles and of corpora lutea formed was compared. Occurrence of ovulation was detected by laparoscopy. […] Treatment of these animals produced similar results as described in Examples 1 to 3.

red fox males = assay: Inducing spermiogenesis of red fox in seasonal oligospermia; format: in vivo, Vulpes vulpes
Text: We have attempted to induce spermiogenesis of red fox males kept in Zoo and being in seasonal oligospermia with the aim that pure bred silver and blue foxes kept under farming scale conditions might be inseminated for the production of high-quality hybrid furs. […] Between unoestrus of the various sub-species is a difference of several months (red fox: January; blue fox: April and May). Results of the test were compared to population being in seasonal unoestrus where the average quantity of ejaculate was 2 ml, density 3 and motility 50-60%. This was taken as physiological value. During the test 5 sexually mature red fox males of 8 kg average weight were treated in the month of April, twice weekly with 1, 5, 10, and 50 μg doses of D-Phe^6, Gln^8 -GnRH analogue for seven weeks. On the third week following commencement of treatment sperm sample was taken. In the sample sperm count was 70% of the physiological value, and the number of degenerated sperm was over 40%. Most of the deformed forms were of young formation (plasma droplet of neck and middle part). […] (Males were separated from females, thus they had no opportunity to copulate.) Sperm samples were put into groups according to quality, then put into deep freeze. […] By ejaculating the 5 foxes once each, 56 doses of sperms suitable for fertilizing were obtained. In this way industrial technology service was provided for the production of quality furs.

potential breeding sows = assay: Inducing first successful rutting of female piglets in puberty; format: in vivo, pigs; settings: treated group of 30
Procedure: For our tests 60 potential breeding sows were selected from a stock of 200 sows available at the farm, on the basis of best growing vigor and feed conversion determined by industrial technology. These animals were put into 2 random groups of 30 each. Both groups, also according to industrial technology, were kept without food and drink for 24 hours. Animals at time of selection were injected intramuscularly with D-Phe^6, Gln^8 -GnRH analogue diluted in normal saline solution, then injections were repeated with 20 μg doses each from the same analogue twice with 24 hours intervals. The first rutting animal appeared 5 days after selection both in the untreated control group and in the treated group. Both groups were kept in the same sty, air-space, under similar conditions for 26 days as permitted in the industrial farming technology. During this time 3 animals (10%) from the untreated control and 21 animals (70%) from the treated stock rutted successfully. […] In this test series exact timing of ovulation was not amongst aims since only a few boars were available. For this reason, aim of the treatment was "the first successful rutting" within 26 days. 10% of the sows in farrow was a result acceptable to industrial farming average, thus the increase to 70% as a result of treatment means a very significant economic advantage.

female blue fox = assay: Treatment of female blue fox in seasonal unoestrus for inducing fertile oestrus; format: in vivo
Procedure: Female blue fox in seasonal unoestrus was examined in December under narcosis with the aid of laparoscopy. […] Then the animal had twice daily intramuscular treatment for ten days with a 1 to 5 μg dose of D-Phe^6, Gln^8 -GnRH analogue. On the tenth day another laparoscopy was carried out under narcosis. […] Also in December a rejected female due to mammalian atrophy was similarly treated twice a day with 2 μg each of D-Phe^6, Gln^8 -GnRH analogue the effect of which was followed by looking at changes in condition of the neck of uterus. On the 6th day following first treatment, the neck of uterus opened. At this time the treatment was carried out with 50 μg of active ingredient. 16 hours later conditions of the ovaries were examined with mirroring and a state immediately prior to ovulation was found. Then abdominal cavity was entirely opened, the ovaries were removed and by puncturing ova were removed from a total of 11 Graf-follicles. Six regular, normal ova covered with corona radiata were found.

[1] = system: ovary of infant domestic cat; assay: Stimulating function of ovary in infant domestic cat (D-Phe6,Gln8-GnRH); format: in vivo, Felis cattus domesticus; settings: 100 μg i.m. every second day, 4 times; 45 days old kittens
Procedure: 5 kittens each weighing 0.3 kg and being 45 days old were treated with D-Phe^6, Gln^8 -GnRH analogue every second day, altogether 4 times, using 100 μg each of the active ingredient. It was intramuscularly administered after dilution in normal saline solution. Following treatment, ovaries of both sides were removed from the animals under narcosis and visual examination took place. Thereafter the ovaries were fixed in formalin, and then hystological test was carried out. […] Under incrustation developing follicles were found, well definable from the bright, butter-coloured ovary. Some of the follicles were of Graf-follicle size.

[2] = system: primordial follicles of infant domestic female cat; assay: Stimulating primordial follicles in infant domestic female cat; format: in vivo, Felis cattus domesticus; settings: 0.1 μg i.m. three times daily for three days
Procedure: 5 kittens of 0.3 kg weight and being 45 days old were treated with D-Phe^6, Gln^8 -GnRH analogue in such a way that under narcosis the left-side ovary was removed. Thereafter the medium was treated for three days, three times daily, with a 4-hour time interval between treatments. Treatment was carried out nine times in all and every instance a 0.1 μg dose of the analogue was used. The active ingredient was suspended in normal saline solution and propyleneglycol and it was administered intramuscularly. After treatment remaining ovaries were removed, evaluated visually, then after fixing hystological examination was performed. Visually both ovaries were butter-yellow, looked homogeneous, but the treated ovary was slightly enlarged.

`CC(C)C[C@H](NC(=O)[C@@H](Cc1ccccc1)NC(=O)[C@H](Cc1ccc(O)cc1)NC(=O)[C@H](CO)NC(=O)[C@H](Cc1c[nH]c2ccccc12)NC(=O)[C@H](Cc1c[nH]cn1)NC(=O)[C@@H]1CCC(=O)N1)C(=O)N[C@@H](CCC(N)=O)C(=O)N1CCC[C@H]1C(=O)NCC(N)=O` [D-Phe^6, Gln^8 -GnRH analogue, D-Phe^6, Gln^8 -GnRH] ([pGlu]HWSY[dF]LQPG-NH2) was tested, and the “ovulations and corpora haemorrhagica in each animal” value (infant domestic rabbits) was 30-40, the ovulations (infant female pigs) was 15-36 and the “doses of sperms suitable for fertilizing obtained” value (red fox males; 5 foxes ejaculated once each) was 56. It also gave a density of ejaculate (red fox males; 7 weeks) of 3, a sperm motility (red fox males; 7 weeks, physiological value 50-60%) of 65% and a motility after remelting (red fox males; after dilution and deep freeze at -196° C.) of 45%. The degenerated sperm (red fox males; third week) was “over 40%”, the “sperm count relative to the physiological value” (red fox males; third week, twice weekly 1, 5, 10 and 50 μg doses) was 70% and the “animals that rutted successfully within 26 days” value (potential breeding sows; three i.m. injections at 24 h intervals, 20 μg) was 21 animals. The “share of animals that rutted successfully within 26 days” value (potential breeding sows; untreated control 10%) was 70%, the “regular, normal ova covered with corona radiata found” value (female blue fox; second female) was “Six” and the “day on which the neck of uterus opened” value (female blue fox; second female, 2 μg twice a day) was 6 days. The Graf-follicles punctured (female blue fox; second female, 16 hours after 50 μg) was 11, the “condition of neck of uterus” value (female blue fox; tenth day, same animal) was “the neck of uterus was open” and the “corpora haemorrhagica on ovaries of both sides” value [1] was 5-7. For the same compound, the “follicles which started to grow in treated ovary” value [2] was “many hundreds of”.
